# According to the supplement of paper PMC5770543:
# ± gives the standard deviation.
# Columns and labels:
# [1] = test system: Plasmodium falciparum 3D7; experiment: % inhibition of schizont-to-ring transition vs DMSO; higher = more inhibition
# Summary of the method: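 Schizont-to-ring transition inhibition compares new ring formation with that in vehicle controls. Synchronised P. falciparum schizonts (about 40–42 hours post-invasion, 1% parasitemia, 2.5% hematocrit, AlbuMAX-supplemented RPMI) were exposed to 1, 3 or 10 µM compound, after which rings were counted by Hoechst 33342 flow cytometry across three experiments.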
# [2] = test system: Toxoplasma gondii RH tachyzoites; experiment: median egress time after A23187 ionophore; higher = stronger egress inhibition; settings: 10 µM; pretreatment time: 24 h
# Protocol: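 T. gondii RH tachyzoites expressing firefly luciferase were grown in HFF monolayers for 48 h with compound. % growth inhibition at 10 µM and EC50 (2-fold dilutions from 10 µM) were read by luminescence relative to 1% DMSO; EC50 listed as 10 (not determined, <80% inhibition) is left out. Plaque assays: 50 tachyzoites per well with 10 µM compound for 8-10 days, giving plaque count and area by crystal violet/ImageJ. Egress: median time to egress after 1 µM A23187 ionophore following 24 h of 10 µM compound (DMSO ~1.8 min; >10 = no egress within 10 min).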
# [3] = test system: Toxoplasma gondii RH tachyzoites; experiment: % growth inhibition vs DMSO (48 h luciferase); higher = more inhibition; settings: 10 µM
# [4] = test system: Toxoplasma gondii RH tachyzoites; experiment: plaque count per well; higher = less inhibition; extreme values may be limits of the assay; settings: 10 µM; 8-10 days
# Summary of the method: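 Fifty T. gondii RH tachyzoites were added to each well of six-well plates holding confluent HFF monolayers preseeded with compound at 10 µM. Plates were left undisturbed for 8 to 10 days, then fixed with methanol and stained with crystal violet. Plaques were imaged and counted per well with ImageJ, with untreated and 1% DMSO-treated wells as controls. Plaque count per well reflects delayed-death inhibition of parasite growth.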
# [5] = test system: Plasmodium falciparum 3D7; experiment: EC50 growth inhibition (60 h, SYBR Green); settings: stage: ring-stage start
# [6] = biological target: Toxoplasma gondii RH tachyzoites; experiment: EC50 growth inhibition (48 h luciferase)
# 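Wherever % growth inhibition vs DMSO (48 h luciferase) is given: tested in triplicate wells of 96-well plates on confluent HFF monolayers, with 1% DMSO wells as negative control in four replicates.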
Structure (SMILES),% inhibition of schizont-to-ring transition ([1]; 1 µM),% inhibition of schizont-to-ring transition ([1]; 3 µM),% inhibition of schizont-to-ring transition ([1]; 10 µM),median egress time [2],% growth inhibition [3],plaque count per well [4],EC50 growth inhibition [5],EC50 growth inhibition [6]
Cn1c(C(=O)c2cccc3ccccc23)nc2ccccc21,53%,65.5%,70.2%,2.4 min,9.52 ± 8.7%,24,147 nM,–
CCOc1cccc(C(=O)Nc2ccc(-c3nc4ccccc4[nH]3)cc2)c1,7.94%,22.4%,54.6%,1.87 min,< 0%,28,–,–
Oc1ccc(-c2nc(-c3ccc4oc5ccc(-c6[nH]c(-c7ccc(O)cc7)nc6-c6ccccc6)cc5c4c3)c(-c3ccccc3)[nH]2)cc1,8.13%,15.7%,48.8%,1.47 min,< 0%,11,1890 nM,–
CC(=O)Nc1nnc(SCc2c(C)cc(C(C)(C)C)cc2C)s1,42.7%,46.5%,55.4%,2.4 min,< 0%,21,–,–
O=C(NC1CCN(Cc2ccccc2)CC1)c1cc(-c2cccnc2)nc2ccc(Cl)cc12,13.5%,17.4%,37.7%,2.67 min,19.7 ± 17%,34,2560 nM,–
CCCC(c1nnnn1C1CCCCC1)N1CCN(C(=O)c2ccco2)CC1 (stereo unspecified),9.2%,14.6%,32.1%,2.4 min,9.52 ± 8.7%,24,1470 nM,–
Oc1ccccc1CN1CCC2(CCCN(Cc3ccccc3F)C2)C1 (stereo unspecified),31.4%,37.7%,60.6%,2.13 min,< 0%,26,1140 nM,–
Cc1c(C)n(CC(O)CNC2CCCCC2C)c2ccccc12 (stereo unspecified),14.4%,32.3%,64.2%,3.07 min,< 0%,23,2180 nM,–
COc1ccc(C(=O)C(CCC(CNC(C)(C)C)C(=O)c2ccc(OC)cc2)CNC(C)(C)C)cc1 (stereo unspecified),< 0%,16.3%,66.1%,–,89.2 ± 2.7%,0,1450 nM,1510 nM
N=c1n(CCN2CCCCC2)c2ccccc2n1CC(=O)c1ccc(Cl)c(Cl)c1,36.2%,57.9%,80.4%,–,99.931 ± 0.065%,–,237 nM,1820 nM
O=C(Nc1ccc(N2CCN(Cc3ccccc3)CC2)cc1)c1cccs1,22.9%,21.2%,39.3%,–,91.82 ± 0.81%,–,1870 nM,183 nM
CCCCCCC(O)(c1ccc(F)cc1)C(CN1CCOCC1)c1ccccc1 (stereo unspecified),37.5%,40.1%,40.3%,–,100.1 ± 0.26%,–,2160 nM,3570 nM
Cc1ccc(NC(=O)Nc2cccc(Cl)c2)cc1F,< 0%,2.62%,34.3%,–,98.51 ± 0.27%,–,6570 nM,1620 nM
N=c1n(CCN2CCCCC2)c2ccccc2n1CC(O)c1cccc(Br)c1 (stereo unspecified),< 0%,35.2%,64%,–,85.2 ± 2.2%,–,624 nM,4580 nM
CCOc1ccc(/C=C/c2nc(=O)c3ccccc3o2)cc1,13.3%,41.5%,69.3%,–,97.94 ± 0.17%,–,657 nM,21.7 nM
c1ccc2c(NCCc3c[nH]c4ccccc34)c3ccccc3nc2c1,57.4%,60.8%,71.5%,–,100.1 ± 0.54%,–,201 nM,170 nM
CCOc1ccc2nc(C)cc(Nc3ccc(N(C)C)cc3)c2c1,44.9%,65.7%,69.3%,–,98.02 ± 0.4%,–,410 nM,1440 nM
CCOC(=O)C1=CN(C)C=C(C(=O)OCC)C1c1cc(Br)c(OCC)c(OC)c1,41.2%,58.3%,58.9%,–,95.51 ± 0.24%,–,1040 nM,2590 nM
O=C(NCC1Cc2cccc(-c3ccncc3)c2O1)c1csc2c1CCCC2 (stereo unspecified),9.1%,14.2%,20.6%,–,94.12 ± 0.48%,–,4480 nM,845 nM
O=c1c2c([nH]c3ccccc13)CCCC2,13.7%,22.2%,42.9%,–,89.6 ± 1.1%,–,1790 nM,1040 nM
COc1ccc(Nc2cc(C)nc(NCc3ccccc3)n2)cc1,30.2%,34.6%,60%,–,98.67 ± 0.18%,–,115 nM,653 nM
CC1CC2=C(CC1CNCCCN(C)C)C(C)(C)CCC2 (stereo unspecified),9.39%,52.2%,73.9%,–,99.59 ± 0.27%,–,618 nM,3170 nM
O=C(Nc1cccc(C(F)(F)F)c1)c1cc(Cl)ccc1O,< 0%,20.2%,51.6%,–,99.77 ± 0.14%,–,3770 nM,9.2 nM
COCCNCC(O)Cn1c2ccc(Cl)cc2c2cc(Cl)ccc21 (stereo unspecified),5.35%,32.1%,67.1%,–,99.95 ± 0.13%,–,700 nM,6290 nM
COc1ccc2c(=O)cc(C(Cl)(Cl)Cl)oc2c1,37.9%,45%,55.2%,–,84.4 ± 9.2%,–,2900 nM,1130 nM
FC(F)(F)c1cccc(Nc2nc3ccccc3nc2Nc2cccc(C(F)(F)F)c2)c1,< 0%,15.6%,42.7%,–,99.49 ± 0.16%,–,6400 nM,46.4 nM
COc1ccc(C2Sc3ccccc3N=C3C2=C(O)c2ccccc23)cc1 (stereo unspecified),< 0%,1.15%,31.1%,–,98.68 ± 0.16%,–,1180 nM,963 nM
Cc1ccc(C)c(-c2csc(Nc3ccc(C)c(C)c3)n2)c1,13.5%,16%,20.4%,3.2 min,< 0%,22,–,–
COc1ccc(-c2nc(N3CCN(C(=O)C4CCCCC4)CC3)c3c4c(sc3n2)CCCC4)cc1,10.6%,17.7%,44.9%,–,86 ± 3.8%,–,4080 nM,3080 nM
